What was measured:
Canis familiaris [1] = experiment: Evaluated for 50% increase of myocardial contractility in anesthetized dog, administered intravenously; format: functional, Canis lupus familiaris, Myocardium
Canis familiaris [2] = experiment: Compound was evaluated for 40-60% increase of myocardial contractility in a conscious dog model orally administered.; format: functional, Canis lupus familiaris, Myocardium
Canis familiaris [3] = experiment: Compound was evaluated for 40-60% increase of myocardial contractility in a conscious dog model orally administered; format: functional, Canis lupus familiaris, Myocardium
Canis familiaris [4] = experiment: Compound was evaluated for 50% increase of myocardial contractility in a conscious dog model orally administered.; format: functional, Canis lupus familiaris, Myocardium
Canis familiaris [5] = experiment: Compound was evaluated for 40-60% increase of myocardial contractility in a conscious dog model perorally administered; format: functional, Canis lupus familiaris, Myocardium
Canis familiaris [6] = experiment: Percent increase in heart rate was evaluated by effect of Cardiotonic agents on myocardial contractility in conscious dog administered orally at dose of 0.1 mg/kg; Value is not statistically significant.; format: functional, Canis lupus familiaris; conditions: route oral
Canis familiaris [7] = experiment: Percent increase in heart rate was evaluated by effect of Cardiotonic agents on myocardial contractility in conscious dog administered orally at dose of 0.31 mg/kg; format: functional, Canis lupus familiaris; conditions: route oral
Canis familiaris [8] = experiment: Percent increase in contractility was evaluated by effect of Cardiotonic agents on myocardial contractility in conscious dog administered orally at dose of 0.1 mg/kg; format: functional, Canis lupus familiaris, Myocardium; conditions: route oral
Canis familiaris [9] = experiment: Percent increase in contractility was evaluated by effect of Cardiotonic agents on myocardial contractility in conscious dog administered orally at dose of 0.31 mg/kg; format: functional, Canis lupus familiaris, Myocardium; conditions: route oral
Canis familiaris [10] = experiment: Cardiovascular activity(blood pressure) (0.31 mg/kg) in dog after beta-blockade; format: functional, Canis lupus familiaris
Canis familiaris [11] = experiment: Cardiovascular activity(blood pressure) (0.31 mg/kg) in dog before beta-blockade.; format: functional, Canis lupus familiaris
Canis familiaris [12] = experiment: Cardiovascular activity (contractility) (0.31 mg/kg) in dog after beta-blockade; format: functional, Canis lupus familiaris
Canis familiaris [13] = experiment: Cardiovascular activity (contractility) (0.31 mg/kg) in dog before beta-blockade.; format: functional, Canis lupus familiaris
Canis familiaris [14] = experiment: Cardiovascular activity(heart rate) (0.31 mg/kg) in dog after beta-blockade; format: functional, Canis lupus familiaris
Canis familiaris [15] = experiment: Cardiovascular activity(heart rate) (0.31 mg/kg) in dog before beta-blockade; format: functional, Canis lupus familiaris
Canis familiaris [16] = experiment: Percent increase in contractility was evaluated by effect of Cardiotonic agents on myocardial contractility in conscious dog administered orally at dose of 0.31 mg/kg; Value ranges from (10-20); format: functional, Canis lupus familiaris, Myocardium; conditions: route oral
Canis familiaris [17] = experiment: Percent increase in contractility was evaluated by effect of Cardiotonic agents on myocardial contractility in conscious dog administered orally at dose of 1.0 mg/kg; format: functional, Canis lupus familiaris, Myocardium; conditions: route oral
Canis familiaris [18] = experiment: Percent increase in heart rate was evaluated by effect of Cardiotonic agents on myocardial contractility in conscious dog administered orally at dose of 0.31 mg/kg; Value ranges from(10-15); format: functional, Canis lupus familiaris; conditions: route oral
Canis familiaris [19] = experiment: Percent increase in heart rate was evaluated by effect of Cardiotonic agents on myocardial contractility in conscious dog administered orally at dose of 1.0 mg/kg; format: functional, Canis lupus familiaris; conditions: route oral
Canis familiaris [20] = experiment: Percent increase in contractility was evaluated by effect of Cardiotonic agents on myocardial contractility in conscious dog administered orally at dose of 10 mg/kg; format: functional, Canis lupus familiaris, Myocardium; conditions: route oral
Canis familiaris [21] = experiment: Percent increase in heart rate was evaluated by effect of Cardiotonic agents on myocardial contractility in conscious dog administered orally at dose of 10 mg/kg; format: functional, Canis lupus familiaris; conditions: route oral
Canis familiaris [22] = experiment: Percent increase in heart rate was evaluated by effect of Cardiotonic agents on myocardial contractility in conscious dog administered orally at dose of 3.1 mg/kg; format: functional, Canis lupus familiaris; conditions: route oral
Canis familiaris [23] = experiment: Percent increase in contractility was evaluated by effect of Cardiotonic agents on myocardial contractility in conscious dog administered orally at dose of 3.1 mg/kg; format: functional, Canis lupus familiaris, Myocardium; conditions: route oral
Canis familiaris [24] = experiment: Cardiovascular activity (heart rate) (0.31 ug/kg) in dog after beta-blockade.; format: functional, Canis lupus familiaris
Canis familiaris [25] = experiment: Cardiovascular activity (heart rate) (0.31 ug/kg) in dog before beta-blockade; format: functional, Canis lupus familiaris
Canis familiaris [26] = experiment: Cardiovascular activity (blood pressure) (0.31 ug/kg) in dog before beta-blockade; format: functional, Canis lupus familiaris
Canis familiaris [27] = experiment: Cardiovascular activity (blood pressure) (0.31 ug/kg)in dog after beta-blockade; format: functional, Canis lupus familiaris
Canis familiaris [28] = experiment: Cardiovascular activity (contractility) (0.31 ug/kg) in dog after beta-blockade; format: functional, Canis lupus familiaris
Canis familiaris [29] = experiment: Cardiovascular activity (contractility) (0.31 ug/kg) in dog before beta-blockade.; format: functional, Canis lupus familiaris

Compound: NNC(=O)c1cc(-c2ccc(-n3ccnc3)cc2)nnc1O
- Dose (Canis familiaris [1]): 1 mg/kg

Compound: O=C1CCC(c2ccc(-n3cccn3)cc2)=NN1
- Dose (Canis familiaris [2]): >3.1 mg/kg

Compound: Oc1ccc(-c2cccc(-n3ccnc3)c2)nn1
- Dose (Canis familiaris [1]): 0.2 mg/kg

Compound: Cc1cc(O)nnc1-c1ccc(-n2cnc3c2CCCC3)cc1
- Dose (Canis familiaris [1]): >0.1 mg/kg

Compound: Cc1cc(-c2ccc(-n3ccnc3)cc2)nnc1O
- Dose (Canis familiaris [1]): 0.3 mg/kg

Compound: O=C1CCC(c2ccc(-n3cnc(CO)c3)cc2)=NN1
- Dose (Canis familiaris [1]): 0.034 mg/kg

Compound: Oc1ccc(-c2ccc(-n3ccnc3)cc2)nn1
- Dose (Canis familiaris [1]): 0.1 mg/kg

Compound: O=c1ccc(-c2ccc(-n3ccnc3)cc2)nn1CCO
- Dose (Canis familiaris [1]): >1 mg/kg

Compound: O=C1CCC(c2ccc(-n3ccnc3)cc2)=NN1Cc1ccccc1
- Dose (Canis familiaris [3]): 10 mg/kg

Compound: O=C1CCC(c2ccc(-n3ccnc3S)cc2)=NN1
- Dose (Canis familiaris [2]): >10 mg/kg

Compound: O=C1NN=C(c2ccc(-n3ccnc3)cc2)C2CCCCC12 (stereo not drawn)
- Dose (Canis familiaris [1]): 1 mg/kg

Compound: CCC1CC(=O)NN=C1c1ccc(-n2ccnc2)cc1 (stereo not drawn)
- Dose (Canis familiaris [1]): 1 mg/kg

Compound: O=C1CCC(c2cccc(-n3ccnc3)c2)=NN1
- Dose (Canis familiaris [4]): >1 mg/kg

Compound: Cc1nccn1-c1ccc(C2=NNC(=O)CC2)cc1
- Dose (Canis familiaris [5]): 1 mg/kg
- Dose (Canis familiaris [1]): 0.3 mg/kg

Compound: O=C1CCC(c2ccc(-n3cnc4ccccc43)cc2)=NN1
- Dose (Canis familiaris [3]): 3.1 mg/kg
- Dose (Canis familiaris [1]): 0.1 mg/kg

Compound: Cc1nccn1-c1ccc(-c2ccc(O)nn2)cc1
- Dose (Canis familiaris [1]): 0.1 mg/kg

Compound: O=C1CCC(c2ccc(-n3cnc4c3CCCC4)cc2)=NN1
- Dose (Canis familiaris [3]): >1 mg/kg
- Dose (Canis familiaris [1]): 0.064 mg/kg

Compound: CCc1nc(C)cn1-c1ccc(C2=NNC(=O)CC2)cc1
- Dose (Canis familiaris [3]): <3.1 mg/kg
- Dose (Canis familiaris [1]): 0.1 mg/kg

Compound: O=C1CCC(c2ccc(-n3cccc3)cc2)=NN1
- Dose (Canis familiaris [3]): 10 mg/kg

Compound: O=C1CCC(c2ccc(-n3cnnc3)cc2)=NN1
- Dose (Canis familiaris [3]): >3.1 mg/kg

Compound: O=C1CCC(c2ccc(-n3cncn3)cc2)=NN1
- Dose (Canis familiaris [3]): 1 mg/kg

Compound: Cc1cc(O)nnc1-c1ccc(-n2ccnc2)cc1
- Dose (Canis familiaris [1]): >1 mg/kg

Compound: CN1N=C(c2ccc(-n3ccnc3)cc2)CCC1=O
- Dose (Canis familiaris [1]): >1 mg/kg

Compound: CSc1nccn1-c1ccc(C2=NNC(=O)CC2)cc1
- Dose (Canis familiaris [5]): 10 mg/kg

Compound: C[S+]([O-])c1nccn1-c1ccc(C2=NNC(=O)CC2)cc1 (stereo not drawn)
- Dose (Canis familiaris [3]): 10 mg/kg
- Dose (Canis familiaris [1]): 0.3 mg/kg

Compound: CS(=O)(=O)c1nccn1-c1ccc(C2=NNC(=O)CC2)cc1
- Dose (Canis familiaris [3]): >1 mg/kg

Compound: CC1CC(c2ccc(-n3ccnc3)cc2)=NNC1=O (stereo not drawn)
- Dose (Canis familiaris [1]): 1 mg/kg

Compound: CCc1nc(C)c(Br)n1-c1ccc(-c2ccc(O)nn2)cc1
- Dose (Canis familiaris [1]): 0.2 mg/kg

Compound: Cn1nc(-c2ccc(-n3ccnc3)cc2)ccc1=O
- Dose (Canis familiaris [1]): >1 mg/kg

Compound: O=C(O)c1cc(-c2ccc(-n3ccnc3)cc2)nnc1O
- Dose (Canis familiaris [1]): >1 mg/kg

Compound: CCc1nc(C)cn1-c1ccc(-c2ccc(O)nn2)cc1
- Dose (Canis familiaris [1]): 0.3 mg/kg

Compound: Oc1ccc(-c2ccc(-n3cnc4c3CCCC4)cc2)nn1
- Dose (Canis familiaris [1]): 0.1 mg/kg

Compound: NC(=O)c1cc(-c2ccc(-n3ccnc3)cc2)nnc1O
- Dose (Canis familiaris [1]): >1 mg/kg

Compound: CC(=O)OCCN1N=C(c2ccc(-n3ccnc3)cc2)CCC1=O
- Dose (Canis familiaris [1]): >1 mg/kg

Compound: Nc1cc(-c2ccc(-n3ccnc3)cc2)nnc1O
- Dose (Canis familiaris [1]): 0.3 mg/kg

Compound: CC1CC(O)=NN=C1c1ccc(-n2ccnc2)cc1 (stereo not drawn) [CI-930]
- Dose (Canis familiaris [2]): 0.1 mg/kg
- Dose (Canis familiaris [1]): 0.013 mg/kg
- Increase (Canis familiaris [6]): 34%
- Increase (Canis familiaris [7]): 49%
- Increase (Canis familiaris [8]): 42%
- Increase (Canis familiaris [9]): 70%

Compound: CSc1ccc(C(=O)c2[nH]c(=O)[nH]c2C)cc1 [ENOXIMONE]
- Dose (Canis familiaris [1]): 0.283 mg/kg

Compound: O=C1CCC(c2ccc(-n3ccnc3)cc2)=NN1 [IMAZODAN]
- Change (Canis familiaris [10]): -2.8%
- Change (Canis familiaris [11]): -4.2%
- Change (Canis familiaris [12]): 62.4%
- Change (Canis familiaris [13]): 82%
- Change (Canis familiaris [14]): 5.4%
- Change (Canis familiaris [15]): 24%
- Dose (Canis familiaris [2]): 1 mg/kg
- Dose (Canis familiaris [1]): 0.045 mg/kg
- Increase (Canis familiaris [16]): 10%
- Increase (Canis familiaris [17]): 40%
- Increase (Canis familiaris [18]): 10%
- Increase (Canis familiaris [19]): 29%

Compound: Nc1cc(-c2ccncc2)c[nH]c1=O [INAMRINONE]
- Dose (Canis familiaris [1]): 0.389 mg/kg
- Increase (Canis familiaris [20]): 45%
- Increase (Canis familiaris [21]): 18%
- Increase (Canis familiaris [22]): 23%
- Increase (Canis familiaris [23]): 6%

Compound: CC(C)NCC(O)c1ccc(O)c(O)c1 (stereo not drawn) [ISOPROTERENOL]
- Change (Canis familiaris [24]): 0.4%
- Change (Canis familiaris [25]): 31%
- Change (Canis familiaris [26]): -6.6%
- Change (Canis familiaris [27]): 1%
- Change (Canis familiaris [28]): 10.4%
- Change (Canis familiaris [29]): 96%

Compound: Cc1[nH]c(=O)c(C#N)cc1-c1ccncc1 [MILRINONE]
- Dose (Canis familiaris [1]): 0.037 mg/kg
- Increase (Canis familiaris [17]): 45%
- Increase (Canis familiaris [19]): 60%

Compound: COc1cc([S+](C)[O-])ccc1-c1nc2cccnc2[nH]1 (stereo not drawn) [SULMAZOLE]
- Dose (Canis familiaris [1]): 0.435 mg/kg
- Increase (Canis familiaris [20]): 57%
- Increase (Canis familiaris [21]): 61%

Compound: CC1CC(=O)NN=C1c1ccc(-n2cnc3c2CCCC3)cc1 (stereo not drawn) [TETRAHYDROBENXIMIDAZOLE]
- Dose (Canis familiaris [3]): 0.3 mg/kg
- Dose (Canis familiaris [1]): 0.02 mg/kg

— ChEMBL document CHEMBL1122943, “Cardiotonic agents. 2. Synthesis and structure-activity relationships of 4,5-dihydro-6-[4-(1H-imidazol-1-yl)phenyl]-3(2H)-pyridazinones: a new class of positive inotropic agents” (1985)
